The subject of this experiment is PMA-differentiated THP-1 cells. Description: IL-1β production in PMA-differentiated THP-1 cells stimulated with gramicidin (hTHP-1 assay containing 2% fetal bovine serum; Procedures 1 and 2). As to conditions: 2% fetal bovine serum. In kind it is cell-based, human. In outline:
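IL-1β release from PMA-differentiated THP-1 macrophage-like cells was triggered by 5 μM gramicidin for 2 h after 1 h compound exposure, then measured by HTRF.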

The mark [1] stands for this setting: Homo sapiens, THP-1, Table B3, hTHP-1 assay, class symbols, read-out: IC50.
Setting [2] is: Homo sapiens, THP-1, Table B2, class symbols, read-out: hTHP-1 IC50.
[3] abbreviates: Table B3, hTHP-1 assay, class symbols, read-out: IC50.
[4] abbreviates: Table B2, class symbols, read-out: hTHP-1 IC50.

Drawing on US20230031406A1, “COMPOUNDS AND COMPOSITIONS FOR TREATING CONDITIONS ASSOCIATED WITH NLRP ACTIVITY” (Novartis AG, priority 2018, published 2023), this text covers IC50 for 19 molecules.

Where two headings read alike, the source gives them in different places.

Regarding `Cc1c(C2CC2)nc(C2CC2)c(C)c1NC(=O)N=S(N)(=O)c1cc(C(C)(C)O)cs1` (single isomer, unassigned) [Compound 612a, (S) or (R)-N′-((2,6-dicyclopropyl-3,5-dimethylpyridin-4-yl)carbamoyl)-4-(2-hydroxypropan-2-yl)thiophene-2-sulfonimidamide], the IC50 (Homo sapiens, THP-1, Table B2, numeric bounds, read-out: hTHP-1 IC50) is greater than 30 µM.

In the case of `Cc1c(C(F)(F)F)nc2c(c1NC(=O)N=[S@@](N)(=O)c1cnc(C(C)(C)O)s1)CC(C)C2` (stereo partly drawn) [Example 576, (R)-N′-((3,6-dimethyl-2-(trifluoromethyl)-6,7-dihydro-5H-cyclopenta[b]pyridin-4-yl)carbamoyl)-2-(2-hydroxypropan-2-yl)thiazole-5-sulfonimidamide], the 50% inhibitory concentration (IC50) under setting [1] fell in the range of 0.2 to 1 µM.

For the molecule `CC(C)(O)c1ccc(S(N)(=O)=NC(=O)Nc2c3c(nc4c2CCC4)CCC3)cc1` (single isomer, unassigned) [Compound 633b, (R) or (S)-N′-((1,2,3,5,6,7-hexahydrodicyclopenta [b,e]pyridin-8-yl)carbamoyl)-4-(2-hydroxypropan-2-yl)benzene-sulfonimidamide], the IC50 under setting [2] lay in the range of 5 to 30 µM.

In the case of `CC(C)(O)c1cc(F)c(S(N)(=O)=NC(=O)Nc2c3c(nc(C4CC4)c2C2CC2)CCC3)s1` (single isomer, unassigned) [Example 698, (S) or (R)-N′-((2,3-dicyclopropyl-6,7-dihydro-5H-cyclopenta[b]pyridin-4-yl)carbamoyl)-3-fluoro-5-(2-hydroxypropan-2-yl) thiophene-2-sulfonimidamide], the IC50 under setting [3] is 1 to 5 µM.

Regarding `CCn1cc(F)c(S(N)(=O)=NC(=O)Nc2c3c(nc(C)c2-c2ccccc2)CCC3)n1` (single isomer, unassigned) [Example 769, (R) or (S)-1-ethyl-4-fluoro-N′-((2-methyl-3-phenyl-6,7-dihydro-5H-cyclopenta[b]pyridin-4-yl)carbamoyl)-1H-pyrazole-3-sulfonimidamide], for the setting “Table B4, class symbols, read-out: hTHP-1 IC50”, the IC50 lay within 5 to 30 µM.

For `CC(C)(O)c1cc(Br)c(S(N)(=O)=NC(=O)Nc2c3c(nc4c2CCC4)CCC3)s1` (stereo not shown) [Compound 690, 3-Bromo-N′-((1,2,3,5,6,7-hexahydrodicyclopenta[b,e]pyridin-8-yl)carbamoyl)-5-(2-hydroxypropan-2-yl)thiophene-2-sulfonimidamide], the IC50 under setting [2] lay within 1 to 5 µM.

Regarding `CC(C)(O)c1cnc(S(N)(=O)=NC(=O)Nc2c3c(nc4c2CCC42CC2)CCC3)s1` (stereo not shown) [Compound 683, 5-(2-Hydroxypropan-2-yl)-N′-((1′,5′,6′,7′-tetrahydro-2′H-spiro[cyclopropane-1,3′-dicyclopenta[b,e]pyridin]-8′-yl)carbamoyl)thiazole-2-sulfonimidamide], the IC50 under setting [2] was 1 to 5 µM.

For the molecule `CC(C)n1cc(Cl)c(S(N)(=O)=NC(=O)Nc2c3c(nc4c2CCC4)CCC3)n1` (stereo not shown) [Compound 694, 4-Chloro-N′-((1,2,3,5,6,7-hexahydrodicyclopenta[b,e]pyridin-8-yl)carbamoyl)-1-isopropyl-1H-pyrazole-3-sulfonimidamide], under setting [2], the IC50 fell in the range of 1 to 5 µM.

Take `Cc1c(CC(F)(F)F)nc2c(c1NC(=O)N=S(N)(=O)c1nn(C(F)F)cc1F)CCC2` (single isomer, unassigned) [Example 723, (R) or (S)-1-(difluoromethyl)-4-fluoro-N′-((3-methyl-2-(2,2,2-trifluoroethyl)-6,7-dihydro-5H-cyclopenta[b]pyridin-4-yl)carbamoyl)-1H-pyrazole-3-sulfonimidamide]: the IC50 under setting [1] was in the range of 1 to 5 µM.

Take `NS(=O)(=NC(=O)Nc1c2c(nc3c1CCC31CC1)CCC2)c1ccn(CCO)n1` (single isomer, unassigned) [Example 648, (S) or (R)-1-(2-hydroxyethyl)-N′-((1′,5′,6′,7′-tetrahydro-2′H-spiro[cyclopropane-1,3′-dicyclopenta[b,e]pyridin]-8′-yl)carbamoyl)-1H-pyrazole-3-sulfonimidamide]: the IC50 under setting [3] was 5 to 30 µM.

For the molecule `C[C@](O)(CO)c1cc(F)c(S(N)(=O)=NC(=O)Nc2c3c(nc4c2CCC42CC2)CCC3)s1` (stereo partly shown) [Compound 716a], the IC50 under setting [2] was in the range of 0.04 to 0.2 µM.

In the case of `CC(C)(O)c1ccc(S(N)(=O)=NC(=O)Nc2c3c(nc4c2CCC4)CCC3)s1` (stereo not shown) [Compound 149, N′-((1,2,3,5,6,7-hexahydrodicyclopenta[b,e]pyridin-8-yl)carbamoyl)-5-(2-hydroxypropan-2-yl)thiophene-2-sulfonimidamide], the IC50 (Homo sapiens, THP-1, Table B1, class symbols, read-out: Average IC50 of compounds in hTHP-1 assay: hTHP-1 IC50) was 0.2 to 1 µM.

`Cc1c(C(C)C)nc2c(c1NC(=O)N=S(N)(=O)c1cnc(C(C)(C)O)s1)CCC2` (single isomer, unassigned) [Compound 650a, (R) or (S)-2-(2-Hydroxypropan-2-yl)-N′-((2-isopropyl-3-methyl-6,7-dihydro-5H-cyclopenta[b]pyridin-4-yl)carbamoyl)thiazole-5-sulfonimidamide]: the IC50 under setting [4] fell in the range of 0.04 to 0.2 µM.

Regarding `CCC1CCc2c1nc1c(c2NC(=O)N=S(N)(=O)c2cnc(C(C)(C)O)s2)CCC1` (single isomer, unassigned) [Compound 662d, (R, R) or (R, S) or (S, R) or (S, S)-N′-((3-Ethyl-1,2,3,5,6,7-hexaliydrodicyclopenta [b,e]pyridin-8-yl)caibamoyl)-2-(2-hydroxypropan-2-yl)thiazole-5-sulfonimidamide], the half-inhibitory concentration (IC50) under setting [4] is 5 to 30 µM.

Consider `CC(C)(O)c1cc(Cl)c(S(N)(=O)=NC(=O)Nc2c3c(nc4c2CCC4)CCC3)s1` (stereo not shown) [Compound 691, 3-Chloro-N′-((1,2,3,5,6,7-hexahydrodicyclopenta[b, e]pyridin-8-yl)carbamoyl)-5-(2-hydroxypropan-2-yl)thiophene-2-sulfonimidamide], for which, under setting [2], the IC50 lay within 1 to 5 µM.

Regarding `CC1(C)CCc2c1nc1c(c2NC(=O)N=[S@@](N)(=O)c2cc([C@](C)(O)CO)cs2)CCC1` [Example 651, (R)-4-((S)-1,2-dihydroxypropan-2-yl)-N′-((3,3-dimethyl-1,2,3,5,6,7-hexahydrodicyclopenta[b,e]pyridin-8-yl)carbamoyl) thiophene-2-sulfonimidamide], under setting [1], the IC50 lay in the range of 0.04 to 0.2 µM.

For the molecule `Cc1c(C(F)(F)F)nc2c(c1NC(=O)N=S(N)(=O)c1sc(C(C)(C)O)cc1F)CCC2` (stereo not shown) [Compound 632, 3-Fluoro-5-(2-hydroxypropan-2-yl)-N′-((3-methyl-2-(trifluoromethyl)-6,7-dihydro-5H-cyclopenta[b]pyridin-4-yl)carbamoyl)thiophene-2-sulfonimidamide], under setting [2], the IC50 lay within 0.2 to 1 µM.

As to `CCc1c(C(F)(F)F)nc2c(c1NC(=O)N=S(N)(=O)c1cnc(C(C)(C)O)s1)CCC2` (single isomer, unassigned) [Compound 610a, (R) or (S)-N′-((3-ethyl-2-(trifluoromethyl)-6,7-dihydro-5H-cyclopenta[b]pyridin-4-yl)carbamoyl)-2-(2-hydroxypropan-2-yl)thiazole-5-sulfonimidamide], the IC50 under setting [4] was 1 to 5 µM.

On to `Cc1c(C2CC2)nc2c(c1NC(=O)N=S(N)(=O)c1cc(C(C)(C)O)n(-c3ccccc3)n1)CCC2` (single isomer, unassigned) [Compound 651b, (R) or (S)-N′-((2-cyclopropyl-3-methyl-6,7-dihydro-5H-cyclopenta[b]pyridin-4-yl)carbamoyl)-5-(2-hydroxypropan-2-yl)-1-phenyl-1H-pyrazole-3-sulfonimidamide], for which the IC50 under setting [4] lay within 1 to 5 µM.
